Experimental data as given in patent US20230107274A1, “AN ORAL PHARMACEUTICAL COMPOSITION COMPRISING AN EXTRACT OF COMBINED HERBS COMPRISING LONGANAE ARILLUS FOR THE TREATMENT OR ALLEVIATION OF INFLAMMATORY DISEASE AND THE USE THEREOF” (MEDIHELPLINE CO., LTD, priority 2020, published 2023).

Experiments:
[1] = test system: MIA(Monosodium iodoacetate)-induced osteoarthritis rat model; test: Pain threshold (dynamic plantar aesthesiometer) in MIA-induced osteoarthritis rat model; assay type: in vivo
Method: (§1) In order to evaluate the efficacy of test sample on MIA(Monosodium iodoacetate)-induced osteoarthritis rat model, following test was performed at “Joint and Immune disease T2B center(chief MD. PARK, Sung-whan) located in “The Catholic University of Korea, Seoul ST. Mary's Hospital, Seoul).
(§2) (1) Test animals: Rats (Male Wista rats, Central Lab. Animal, Seoul, Korea, 7 to 8 weeks aged, 200 to 250 g) were bred in the well-controlled breeding room in polysulfone cage (2-3 […] per cage) maintaining the temperature of 21±2° C. and relative humidity of 50±20% with the light cycle of day/dark (08:00˜20:00) at the interval of 12 hours and acclimated to the surround environment
(§3) Test method: 3 mg/kg of Monosodium iodoacetate (MIA, 12512, Sigma, Poole, UK) was dissolved in the injection saline to re reach to 60 mg/ml concentration on the day of the experiment (day 0). After dividing each groups, the experimental animals were placed in the anesthesia chamber and anesthetized with diethyl ether. 50 μL of MIA (3 mg/body) was injected into the right knee joint through the infrapatellar ligament using a 1cc syringe (26.5 gauge) in order to inducing osteoarthritis
(§4) (4) Treatment route: oral administration 3 days after inducing osteoarthritis (once a day)
(§5) After inducing osteoarthritis with MIA, test sample treatment groups (G2, G3) were prepared by homogenizing the test samples with vehicle (saline) according to the prescribed dose and orally administrating 1 mL of test sample once a day.
The positive control group (G4) was homogenized to the vehicle according to the prescribed dose and orally administered once a day.
24 rats were divided into 4 groups per 6 rats, and the test samples and positive control substance were orally administered at a specified time.
The pain threshold (nociceptive latency, threshold) was determined by using dynamic plantar aesthesiometer (Ugo Basile, 37400, Comerio, Italy), a device that gradually increases the force on the feet of Male Wistarats over a certain period of time, according to a […] evaluation method to measure pain thresholds ((Kwon J Y et al., Sci Rep. 2018 Sep. 14; 8(1):13832)
Prior to measurement, the animal was placed in an acrylic box with a wire mesh bench and acclimated for five minutes.
The pain threshold was determined by measuring the weight showing paw withdrawal behavior which animal withdraws its feet by applying a slow force of 0 to 50 g over 10 seconds using metal filaments in the center of each animal's right hind foot.
To avoid tissue damage, the cut-off threshold was set to 50 g, and the measurement time was set to the day before the inducing day of osteoarthritis by the treatment of MIA to calculate base line value in the normal control group (G1), test sample groups (G2, G3) and positive control group (G4) and the same value was obtained in the base line (day 3).
The same value was measured before the treatment of test samples (day 3) and the value was measured once a week at a certain time by administering the test samples in the […] of rats.
The test result of pain threshold was calculated according to (a) paw withdrawal latencies (sec) and (b) paw withdrawal threshold (g).

[2] = test system: MIA(Monosodium iodoacetate)-induced osteoarthritis rat model; test: Weight bearing in MIA-induced osteoarthritis rat model; assay type: in vivo
Method: as §1, §2, §3, §4, §5
In order to measure the change in weight (or weight distribution) between normal hind legs (left) and arthritis-induced hind legs (right), the load of both hind feet was determined using testing apparatus (Model 600, IITC, USA) according to the method described in the literature (Kwon J Y et al., Sci Rep. 2018 Sep. 14; 8(1):13832).
The test animal shall be correctly located in the holder and fixed so that both feet can be stepped symmetrically, since the load can be varied depending on the position of the animal's foot. The particular person performs the fixation to reduce the possible error to the maximum extent.
When each animal was correctly located in the holder, the machine was operated and the weight bearing of each group was measured twice for 5 seconds per measurement.
The mean value for each test result was digitized into the weight bearing(g) of each foot.
After obtaining a baseline value before MIA treatment (Day 0), the weight bearing in the normal control group (G1), test sample groups (G2, G3) and positive control group (G4), was determined at a certain time twice a week, 3 days before the treatment of test sample (day 3).
The test results of the weight load measurement were transformed into each weight bearing ratio according to below Math 1.
Weight ratio (%)={weight of right hind limb/(weight of right hind limb+weight of left hind limb)}×100 [Math.1]

[3] = test system: MIA(Monosodium iodoacetate)-induced osteoarthritis rat model; test: Bone injury by micro-CT in MIA-induced osteoarthritis rat model; assay type: in vivo; details: 30 mg/kg oral once a day; vehicle 45.7
Method: as §1, §2
(§6) Test method: 3 mg/kg of Monosodium iodoacetate (MIA, 12512, Sigma, Poole, UK) was dissolved in the injection saline to re reach to 60 mg/ml concentration on the day of the experiment (day 0). […]
The degree of bone injury around femur area of the knee joint in each group consisting of 3 rats, was determined using X-ray source (70 kV, 142 uA, AI 0.5 mm filter, rotation step 0.6°) and animal scanner (SKYSCAN1272 ex-vivo micro-CT, Bruker micro CT, Belgium) to perform micro-CT photography at 15 μm of Pixel resolution including section formation (NRecon), section rotation (Data Viewer), data Analysis (CTAN), Volume rendering generation (CTVox), and surface rendering (CTAN+CTVol).

[4] = test system: MIA(Monosodium iodoacetate)-induced osteoarthritis rat model; test: Bone injury by histopathological analysis (Safranin O; Total Mankin score, OARSI score) in MIA-induced osteoarthritis rat model; assay type: in vivo; details: 30 mg/kg oral once a day
Method: as §1, §2
as §6, with “0). After dividing each groups, the experimental animals were placed in the anesthesia chamber and anesthetized with diethyl ether.” for “0).”
The histopathological analysis was performed by photographing the femur area of knee joint (×200 fold). The test result was calculated and evaluated according to the known methods including Total Mankin score (Bulstra S K et al., 1989, Clin Orthop Relat Res: 294-302.) and OARSI score (Pritzker K. P. H. et al., 2006, Osteoarthritis Cartilage 14:13-29).

TSLP = test: Inhibition of cytokine expression in TNF alpha-induced HaCaT cell (Real-time PCR): TSLP; assay type: cell-based, human; details: TNFα 50 ng/ml, Dexamethasone 200 nM, TNFα+DIW control 132.4692
Method: (§7) In order to determine the anti-inflammatory activity of inventive extract, following inhibition test of cytokine expression using HaCaT cell was performed according to the procedure disclosed in the literature (Jeong et al., 2019, J. Invest. Dermatol., May; 139 (5): pp 1098-1109).
(§8) HaCaT cell (human epithelial keratinocyte cell, 300493, CLS) was inoculated into DMEM medium containing 10% Fetal bovine serum, 100 units/ml of penicillin, 100 μg/ml of streptomycin (D6429, Sigma-Aldrich Co. Ltd) and was incubated in the incubator (HERA cell 150i, Thermo Fisher Scientific Co. Ltd.) maintaining optimum humidity (85-95%) and 5% CO2 atmosphere.
(§9) For performing gene expression test, the incubated cells were transferred to 12 wells and 50 ng/ml of TNF alpha (RC214-12, Biobasic Co. Ltd) was treated therewith for 1 hour to induce inflammatory response.
(§10) 1 hour after inducing the inflammation, 1 μg/ml of inventive extract prepared in Examples was treated with identical medium and subjected to incubation for 1 hour. After the incubation, RNA (FATRR-001, Favorgen) was extracted from the cell and cDNA was synthesized from the RNA using by cDNA synthesis kit (RRO36A, TAKARA). […]

IL-1β = test: Inhibition of cytokine expression in TNF alpha-induced HaCaT cell (Real-time PCR): IL-1β; assay type: cell-based, human; details: TNFα 50 ng/ml, Dexamethasone 200 nM, TNFα+DIW control 4.152715
Method: as §7, §8, §9, §10

## Cc1ccc(-c2cc(C(F)(F)F)nn2-c2ccc(S(N)(=O)=O)cc2)cc1 [Celecoxib]
[1]; 30 mg/kg oral once a day, 6 days after MIA treatment, vehicle 8.6
  paw withdrawal latencies: 9.9 ± 2.2 s
[1]; 30 mg/kg oral once a day, 6 days after MIA treatment, vehicle 17.4
  paw withdrawal threshold: 19.9 ± 4.3 g
[1]; 30 mg/kg oral once a day, 11 days after MIA treatment, vehicle 9.1
  paw withdrawal latencies: 10.2 ± 0.9 s
[1]; 30 mg/kg oral once a day, 11 days after MIA treatment, vehicle 18.5
  paw withdrawal threshold: 20.7 ± 1.7 g
[1]; 30 mg/kg oral once a day, 13 days after MIA treatment, vehicle 9.0
  paw withdrawal latencies: 10.4 ± 0.9 s
[1]; 30 mg/kg oral once a day, 13 days after MIA treatment, vehicle 18.3
  paw withdrawal threshold: 21.0 ± 1.6 g
[1]; 30 mg/kg oral once a day, 17 days after MIA treatment, vehicle 9.5
  paw withdrawal latencies: 10.9 ± 1.8 s
[1]; 30 mg/kg oral once a day, 17 days after MIA treatment, vehicle 19.2
  paw withdrawal threshold: 22.0 ± 3.4 g
[1]; 30 mg/kg oral once a day, 21 days after MIA treatment, vehicle 9.0
  paw withdrawal latencies: 11.9 ± 1.5 s
[1]; 30 mg/kg oral once a day, 21 days after MIA treatment, vehicle 18.3
  paw withdrawal threshold: 24.0 ± 2.9 g
[1]; 30 mg/kg oral once a day, 25 days after MIA treatment, vehicle 9.0
  paw withdrawal latencies: 11.6 ± 1.0 s
[1]; 30 mg/kg oral once a day, 25 days after MIA treatment, vehicle 18.2
  paw withdrawal threshold: 23.4 ± 1.9 g
[1]; 30 mg/kg oral once a day, Before MIA treatment (baseline), vehicle 16.8
  paw withdrawal latencies: 16.0 ± 1.5 s
[1]; 30 mg/kg oral once a day, Before MIA treatment (baseline), vehicle 33.6
  paw withdrawal threshold: 33.8 ± 2.9 g
[1]; 30 mg/kg oral, 3 days after MIA treatment (before first dose), vehicle 9.4
  paw withdrawal latencies: 9.2 ± 2.1 s
[1]; 30 mg/kg oral, 3 days after MIA treatment (before first dose), vehicle 19.0
  paw withdrawal threshold: 18.6 ± 4.1 g
[2]; 30 mg/kg oral once a day, 6 days after MIA inducement, vehicle 35.5
  weight bearing, weight ratio of right hind limb: 38.5 ± 1.8%
[2]; 30 mg/kg oral once a day, 11 days after MIA inducement, vehicle 33.8
  weight bearing, weight ratio of right hind limb: 40.0 ± 3.2%
[2]; 30 mg/kg oral once a day, 13 days after MIA inducement, vehicle 32.3
  weight bearing, weight ratio of right hind limb: 44.5 ± 0.7%
[2]; 30 mg/kg oral once a day, 17 days after MIA inducement, vehicle 32.2
  weight bearing, weight ratio of right hind limb: 43.9 ± 1.3%
[2]; 30 mg/kg oral once a day, 21 days after MIA inducement, vehicle 31.6
  weight bearing, weight ratio of right hind limb: 39.7 ± 3.7%
[2]; 30 mg/kg oral once a day, 25 days after MIA inducement, vehicle 33.3
  weight bearing, weight ratio of right hind limb: 41.7 ± 1.9%
[2]; 30 mg/kg oral once a day, Before MIA inducement (baseline), vehicle 50.6
  weight bearing, weight ratio of right hind limb: 49.3 ± 0.9%
[2]; 30 mg/kg oral, 3 days after MIA inducement (before first dose), vehicle 36.9
  weight bearing, weight ratio of right hind limb: 34.7 ± 4.0%
[3]
  Bone surface (Micro-CT, femur area of knee joint): 57.5 ± 0.5%
[4]; vehicle 4
  OARSI score: 2.4 ± 0.4
[4]; vehicle 7.5
  Total Mankin score: 4 ± 0.6

## C[C@@H]1C[C@H]2[C@@H]3CCC4=CC(=O)C=C[C@]4(C)[C@@]3(F)[C@@H](O)C[C@]2(C)[C@@]1(O)C(=O)CO [Dex, Dexamethasone]
TSLP
  TSLP expression (RT-PCR, relative to untreated = 1): 52.49
IL-1β
  IL-1β expression (RT-PCR, relative to untreated = 1): 1.081
